Laboratory results reported in patent US5985826A, “Methods of using hepatic-directed compounds in pretargeting strategies” (NeoRx Corporation, priority 1997, dated 1999).

Key:
[1] = test system: MAb-streptavidin conjugate; assay: Serum/blood clearance of MAb-streptavidin conjugate with galactose cluster-biotin conjugates (precomplexed ex vivo, or given after the conjugate); assay type: in vivo, mouse; conditions: precomplexed at 20-fold molar excess; 120 or 12 micrograms i.v.; vs antibody conjugate control; BALB/c female
Method: Some or all of these compounds were assayed for their clearance directing activity in two sets of experiments. The first set of experiments involved ex vivo preparation of a precomplexed monoclonal antibody-streptavidin-biotin-galactose cluster conjugate labeled with I-125, intravenous administration of the conjugate in a mouse model, and measuring serum levels of the conjugate over time. The second set of experiments involved intravenous administration of MAb-streptavidin conjugate followed by administration of biotin-galactose cluster conjugate.
NR-LU-10 antibody (MW 150 kD) was conjugated to streptavidin (MW 66 kD) (as described in Example II above), and radiolabeled with ^125 I/PIP-NHS as described below. The antibody component of the conjugate was radioiodinated using p-aryltin phenylate NHS ester (PIP-NHS) and ^125 I sodium iodide. […]
Experiments were designed and executed to evaluate a 16 galactose cluster-biotin construct without the stabilizing tertiary amine structure of the nitrogen of the amide closest to the biotin, the preparation of such a stabilized construct being described above in Example V. BALB/c female mice (20-25 g) were injected i.v. with 120 micrograms of NR-LU-10-streptavidin conjugate radiolabeled with I-125, and blood was serially collected from n=3 mice. The clearance of the conjugate from the blood was measured of these control mice. […]

[2] = test system: I-125 NR-LU-10-streptavidin conjugate; assay: In vivo pretargeting-format clearance of I-125 NR-LU-10-streptavidin conjugate from circulation; set-up: species or system mice (BALB/c)
Method: In a third set of experiments conducted in vivo in the pretargeting format (e.g., administration of radiolabeled MAb-streptavidin conjugate followed by administration of clearing agent), the (galactosyl)8 -LC-biotin conjugate was also compared to galactose-HSA-biotin prepared as described above. This comparison was conducted in a Balb/c mouse model and was for the ability to clear an I-125 labeled monoclonal antibody-streptavidin conjugate (1-125 LU-10-streptavidin) from circulation as a function of time. […] Subsequent experiments have further shown that hepatic-directed compounds containing 16 galactose residues provide for even better clearance than those containing 8 galactose residues.
Having shown that precomplexed material could clear rapidly and efficiently from the blood, experiments were conducted to measure the effectiveness of various doses of-the 16 galactose-biotin construct to form rapidly clearing complexes in vivo. Mice received 400 micrograms of I-125 NR-LU-10streptavidin conjugate intravenously, and approximately 22 hours later received the 16 galactose-biotin construct at doses of 100 50, or 10:1 (456, 228 and 45 micrograms, respectively) molar excess to circulating monoclonal antibody-streptavidin conjugate. […] The larger doses may be sufficiently high to achieve competition between complexed and non-complexed 16-galactose-biotin for liver receptors, thereby precluding all but a small initial fraction of the complexed MAb-streptavidin conjugate from clearing via the liver. Following the plateau period, clearing of the conjugate remained slow and was eventually less complete than that achieve with the lower dose (approximately 10% of the conjugate remained in circulation at the higher doses, in comparison to 2% for the lower dose). […] If the 16 galactose-biotin construct is unstable, sufficient biotin may be released at higher doses to that a significant portion of circulating conjugate became blocked thereby and, consequently, was not cleared via hepatic-mediated uptake.

[3] = test system: SW-1222 colon tumor xenografts; assay: Tumor targeting of Y-90-DOTA-biotin after NR-LU-10-streptavidin and 16 galactose-biotin, SW-1222 colon xenograft; assay type: in vivo, nude mice
Method: (§1) Having shown that effective clearing could be achieved with the appropriate does of 16 galactose-biotin construct, studies were undertaken in tumored nude mice to evaluate the potential blockade of tumor-associated conjugate by the small 16 galactose-biotin. Mice bearing either SW-1222 colon tumor xenografts or SHT-1 small cell lung cancer (SCLC) tumor xenografts were pretargeted with NR-LU-10-streptavidin conjugate and, 22 hours later, received 46 micrograms of 16 galactose-biotin. After 2 hours, Y-90-DOTA-biotin prepared as described above was administered, and its uptake and retention in tumor and non-target tissues was evaluated by sacrifice and tissue counting for radioactivity 2 hours post-administration.
(§2) The historical controls were conducted with a 3 hour time period between clearing agent and radioactivity administration.

[4] = test system: SHT-1 small cell lung cancer (SCLC) tumor xenografts; assay: Tumor targeting of Y-90-DOTA-biotin after NR-LU-10-streptavidin and 16 galactose-biotin, SHT-1 SCLC xenograft; assay type: in vivo, nude mice
Method: as §1, §2

[5] = Non-target organ uptake of Y-90-DOTA-biotin radioactivity in tumored nude mice; assay type: in vivo; conditions: vs historical controls
Method: as §1, §2

MAb-streptavidin = assay: Relative stoichiometry of In-111 DOTA-biotin to I-125 MAb-streptavidin at the tumor target site; assay type: in vivo; conditions: I-125 MAb-streptavidin and In-111 DOTA-biotin
Text: Experiments were. also carried out using I-125 labeled MAb-streptavidin conjugate and In-111 labeled DOTA-biotin to assess the relative stoichiometry of those materials at the tumor target site using 16 galactose-biotin as a clearing agent. […] When a similar protocol was employed with the 16 galactose-biotin construct, the ratio of DOTA-biotin to MAb-streptavidin was only 2.65. […] Experiments to assess the nature of this blockade are underway.

[6] = 46 micrograms, Y-90-DOTA-biotin, vs historical controls with (galactose)35-HSA-(biotin)2
[7] = vs (galactose)35-HSA-(biotin)2 historical controls

Compound	Blood clearance of precomplexed conjugate [1]	Efficiency at removing circulating conjugate, lower and higher doses ([2]; 12, 23 and 228 microgram, vs 46 microgram)	Rebound effect, lower doses ([2]; 12 and 23 microgram)	Clearing effectiveness at 46 micrograms vs (galactose)35-HSA-(biotin)2 ([2]; 46 microgram, vs previously optimized dose)	Effectiveness at clearing conjugate, each dose ([2]; 100, 50 or 10:1 molar excess (456, 228 and 45 micrograms), about 22 h after 400 micrograms conjugate)	Optimal clearing dose ([2]; decreasing dose comparison) [microgram]	Conjugate remaining in circulation, higher doses ([2]; higher doses (456 and 228 micrograms; 100:1, 50:1))	Duration of plateau in conjugate clearance ([2]; larger doses (456, 228 micrograms), after administration of 16 galactose-biotin)	Conjugate remaining in circulation, lower dose ([2]; lower dose (45 micrograms; 10:1)) [%]	Clearing of MAb-streptavidin from the circulation, summary ([2]; vascular and extravascular spaces)	Tumor targeting, high antigen-expressing colon xenograft [3, 6]	Tumor uptake of radioactivity, SW-1222, overall assessment [3, 7]	Tumor targeting, low antigen-expressing SCLC xenograft [4, 6]	Tumor uptake of radioactivity, SHT-1, overall assessment [4, 7]	Liver uptake ([5]; 2 hours between clearing agent and radioactivity)	Non-target organ uptake except liver ([5]; Y-90 radioactivity)	Ratio of DOTA-biotin to MAb-streptavidin at the tumor (MAb-streptavidin)	Ability to clear I-125 LU-10-streptavidin from circulation ([2]; Balb/c mouse, vs galactosylated-HSA-biotin)
CN(CCCCSC1O[C@H](CO)[C@H](O)[C@H](O)[C@H]1O)C(=O)CCCCCN(CCCCCC(=O)N(C)CCCCSC1O[C@H](CO)[C@H](O)[C@H](O)[C@H]1O)C(=O)CCCCCN(CCCCCC(=O)N(CCCCCC(=O)N(C)CCCCSC1O[C@H](CO)[C@H](O)[C@H](O)[C@H]1O)CCCCCC(=O)N(C)CCCCSC1O[C@H](CO)[C@H](O)[C@H](O)[C@H]1O)C(=O)CCCCCN(CCCCCC(=O)N(CCCCCC(=O)N(CCCCCC(=O)N(C)CCCCSC1O[C@H](CO)[C@H](O)[C@H](O)[C@H]1O)CCCCCC(=O)N(C)CCCCSC1O[C@H](CO)[C@H](O)[C@H](O)[C@H]1O)CCCCCC(=O)N(CCCCCC(=O)N(C)CCCCSC1O[C@H](CO)[C@H](O)[C@H](O)[C@H]1O)CCCCCC(=O)N(C)CCCCSC1O[C@H](CO)[C@H](O)[C@H](O)[C@H]1O)C(=O)CCCCCN(CCCCCC(=O)N(CCCCCC(=O)N(CCCCCC(=O)N(CCCCCC(=O)N(C)CCCCSC1O[C@H](CO)[C@H](O)[C@H](O)[C@H]1O)CCCCCC(=O)N(C)CCCCSC1O[C@H](CO)[C@H](O)[C@H](O)[C@H]1O)CCCCCC(=O)N(CCCCCC(=O)N(C)CCCCSC1O[C@H](CO)[C@H](O)[C@H](O)[C@H]1O)CCCCCC(=O)N(C)CCCCSC1O[C@H](CO)[C@H](O)[C@H](O)[C@H]1O)CCCCCC(=O)N(CCCCCC(=O)N(CCCCCC(=O)N(C)CCCCSC1O[C@H](CO)[C@H](O)[C@H](O)[C@H]1O)CCCCCC(=O)N(C)CCCCSC1O[C@H](CO)[C@H](O)[C@H](O)[C@H]1O)CCCCCC(=O)N(CCCCCC(=O)N(C)CCCCSC1O[C@H](CO)[C@H](O)[C@H](O)[C@H]1O)CCCCCC(=O)N(C)CCCCSC1O[C@H](CO)[C@H](O)[C@H](O)[C@H]1O)C(=O)CCCCCNC(=O)CCCC[C@@H]1SC[C@@H]2NC(=O)N[C@@H]21 (stereo partly drawn) [16 galactose-biotin]	extremely rapid clearance from the blood	less efficient at removing circulating conjugate	significant rebound effect	more effective than the previously optimized dose of (galactose)35 -HSA-(biotin)2	effective at clearing conjugate	46	approximately 10%	about 1 hour	2	effective construct for clearing MAb-streptavidin from the circulation	slightly lower	roughly equivalent	slightly higher	roughly equivalent	slightly higher levels	comparable in all tissues except liver	2.65	
CN(CCCCSC1O[C@H](CO)[C@H](O)[C@H](O)[C@H]1O)C(=O)CCCCCN(CCCCCC(=O)N(C)CCCCSC1O[C@H](CO)[C@H](O)[C@H](O)[C@H]1O)C(=O)CCCCCN(CCCCCC(=O)N(CCCCCC(=O)N(C)CCCCSC1O[C@H](CO)[C@H](O)[C@H](O)[C@H]1O)CCCCCC(=O)N(C)CCCCSC1O[C@H](CO)[C@H](O)[C@H](O)[C@H]1O)C(=O)CCCCCN(CCCCCC(=O)N(CCCCCC(=O)N(CCCCCC(=O)N(C)CCCCSC1O[C@H](CO)[C@H](O)[C@H](O)[C@H]1O)CCCCCC(=O)N(C)CCCCSC1O[C@H](CO)[C@H](O)[C@H](O)[C@H]1O)CCCCCC(=O)N(CCCCCC(=O)N(C)CCCCSC1O[C@H](CO)[C@H](O)[C@H](O)[C@H]1O)CCCCCC(=O)N(C)CCCCSC1O[C@H](CO)[C@H](O)[C@H](O)[C@H]1O)C(=O)CCCCCNC(=O)CCCC[C@@H]1SC[C@@H]2NC(=O)N[C@@H]21 (stereo partly drawn) [(galactosyl)8 -LC-biotin]																		comparable to galactosylated-HSA-biotin
